Assay results reported in patent publication US7618968B2, “Aryl triazines as LPAAT-β inhibitors and uses thereof” (Cell Therapeutics, Inc., priority 2001, dated 2009).

Each compound was assayed against T1, LPAAT-β (Homo sapiens, UniProt O15120) (assay: LPAAT-β cell-free assay (colorimetric primary screen, radiometric/fluorescent TLC secondary assay)). Details: Sf9 cell membrane overexpressing LPAAT-β.
T1 construct: the full-length human LPAAT-β cDNA was amplified by PCR; poly-histidine tag (from pFastBac HTc vector) (N); made in house; host or cells: Sf9 insect cells (baculovirus); membrane fraction used
T1 sequence (O15120 24-278): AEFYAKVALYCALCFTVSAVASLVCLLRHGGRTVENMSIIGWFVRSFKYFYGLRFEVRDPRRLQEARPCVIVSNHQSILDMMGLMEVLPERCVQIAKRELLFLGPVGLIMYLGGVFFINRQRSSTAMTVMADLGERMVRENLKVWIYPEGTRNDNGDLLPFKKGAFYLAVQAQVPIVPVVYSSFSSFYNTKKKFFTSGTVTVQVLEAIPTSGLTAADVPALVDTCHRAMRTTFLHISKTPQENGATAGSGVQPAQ
Assay type: biochemical
Excerpt: A. Production of Recombinant LPAAT-β for Assays
For the construction of Baculovirus expression vectors, the full-length human LPAAT-β cDNA was amplified by PCR from the DNA template pCE9.LPAAT-β (West et al., DNA Cell Biol. 16:691-701 (1997)) using the primers 5′-[…] […] […] […]-3′ (olpb1F; SEQ ID NO:1) and 5′-[…] […] […]-3′ (olpb1R; SEQ ID NO:2). The ˜870 bp fragment generated was reamplified by PCR using the primers 5′[…] […] […] […] ATC-3′ (olpb2F; SEQ ID NO:3) and 5′-[…] […] […]-3′ (olpb1R; SEQ ID NO:2). The ˜890 bp fragment generated was then cleaved with Sal I and Xba I for insertion into pFastBac™ HTc vector (Life Technologies, Gaithersberg, Md.) between the Sal I and Xba I sites for the generation of the plasmid pFB.LPAAT-β. This plasmid was then transformed into E. coli DH10Bac™ (Life Technologies, Gaithersberg, Md.) for the generation of recombinant Bacmid DNA for transfection in HighFive (Invitrogen, San Diego, Calif.) or SF9 insect cells for the production of recombinant Baculovirus stocks using the protocol described in the Bac-to-Bac® Baculovirus Expression System (Life Technologies, Gaithersberg, Md.), a eukaryotic expression system for generating recombinant baculovirus through site-specific transposition in E. coli. Viral stocks harvested from the transfected cells can then be used to infect fresh insect cells for the subsequence expression of LPAAT-β fusion protein with a poly-histidine tag and a myc-epitope near its N-terminus. The membrane fraction from these Sf9 cells would be the source of LPAAT enzyme.
B. Preparation of Cell Membranes from Sf9 Cells
For the preparation of membranes from Sf9 Cells, all steps are performed on ice or at 4° C. Sf9 cell pellets (˜10^8 cells) were thawed and resuspended in 1-2 ml of buffer A (20 mM Hepes, pH 7.5, 1 mM DTT, 1 mM EDTA, 20% w/v glycerol, 1 mM Benzamidine, 1 μg/ml soybean trypsin inhibitor (SBTI), 1 μg/ml pepstatin A) w/o DTT but with 1 mM Pefabloc. The cells were lysed by sonication using a Branson Sonifier at output=2, duty cycle=2, 10 pulses each at 10s. with the tip of small sonicator probe submerged but not touching the walls. DTT was then added to 1 mM from a 1 M stock. The samples were centrifuged at 1500 rpm for 5 min. The low speed supernatant was saved and centrifuged (TLA 100.3 rotor, polycarbonate tubes, 2 ml/tube or 1.5 ml/tube minimum) at 100000×g for 1 hr. The high speed pellet was resuspend in Buffer A with a probe sonicator (10 pulses @ output #2 and duty cycle 20%) as a source of LPAAT enzyme.
C. Assay of LPAAT-β Activity
LPAAT-β catalyzes the transfer of an acyl group from a donor such as acyl-CoA to LPA. The transfer of the acyl group from acyl-CoA to LPA leads to the release of free CoA, which can be reacted with the thiol reagent, 5,5′-dithiobis(2-nitrobenzoic acid) (DTNB). The reaction between DTNB and the free sulfhydryl group from CoA generates a yellow-colored product, 3-carboxylato-4-nitrothiophenolate (CNP), that absorbs at 413 nm. LPAAT-β derived from Sf9 cell membrane overexpressing LPAAT-β were resuspended in HEPES saline buffer (20 mM HEPES pH 7.5, 150 mM NaCl), 1 mg/ml BSA and 72 μl aliquots were distributed into 96-well microtiter plates. 8 μl of compound of interest at 200 μM dissolved in 100% DMSO was added into each well. 20 μl of 1 mM 18:1-CoA and 1 mM sn-1-18:1 lysoPA was then added to each well to initiate the reaction and allowed to run at room temperature for 25 min. 100 μl of 1 mM DTNB in 100% ethanol was then added to each well to quench the reaction and for color development. The absorbance at 405 nm, measured using a spectrophotometer plate reader, is proportional to the activity of LPAAT-β in the sample. This colorimetric assay was used for the high throughput screening of LPAAT inhibitors.

Row | Compound | IC50
1 | COc1ccc(Cl)cc1-c1nc(N)nc(Nc2ccc3c(c2)OCO3)n1 [Example 5, N-Benzo[1,3]dioxol-5-yl-6-(5-chloro-2-methoxyphenyl)-[1,3,5]triazine-2,4-diamine] | 280 nM
2 | Cc1ccc(Cl)cc1-c1nc(C#N)nc(Nc2ccc(Br)cc2)n1 [Example 28] | 420 nM
3 | Cc1ccc(Cl)cc1-c1nc(Cl)nc(Nc2ccc(Br)cc2)n1 [Example 20, (4-Bromo-phenyl)-[4-chloro-6-(5-chloro-2-methyl-phenyl)-[1,3,5]triazin-2-yl]-amine] | 10 nM
4 | CNc1ccc(Cl)cc1-c1nc(N)nc(Nc2ccc(Cl)cc2)n1 [Example 44, 6-(5-Chloro-2-methylaminophenyl)-N-(4-chlorophenyl)-[1,3,5]triazine-2,4-diamine] | 1500 nM
5 | Nc1nc(Nc2ccc(Br)cc2)nc(-c2cc(Cl)ccc2Cl)n1 [Example 12, N-2-(4-Bromophenyl)-6-(2,5-dichlorophenyl)-[1,3,5]triazine-2,4-diamine] | 70 nM
6 | Nc1nc(Nc2ccc(Cl)cc2)nc(-c2cccc(Cl)c2)n1 [Example 16, N-(4-chlorophenyl)-6-(3-chlorophenyl)-[1,3,5]triazine-2,4-diamine] | 800 nM
7 | COc1nc(Nc2ccc(Br)cc2)nc(-c2cc(Cl)ccc2C)n1 [Example 21] | 200 nM
8 | COc1ccc(Cl)cc1-c1nc(N)nc(Nc2ccc(F)cc2)n1 [Example 15, 6-(5-Chloro-2-methoxyphenyl)-N-(4-fluorophenyl)-[1,3,5]triazine-2,4-diamine] | 430 nM
9 | Cc1ccc(Cl)cc1-c1nc(N)nc(Nc2ccc3cn[nH]c3c2)n1 [Example 13, 6-(5-Chloro-2-Methyl-Phenyl)-N-(1H-Indazol-6-yl)-[1,3,5]Triazine-2,4-Diamine] | 55 nM

Further lines, results first:

Row | IC50 | Compound
10 | 1800 nM | CCOc1ccc(Cl)cc1-c1nc(N)nc(Nc2ccc(CO)cc2)n1 [Example 53, {4-[4-Amino-6-(5-chloro-2-ethoxy-phenyl) [1,3,5]triazin-2-ylamino]-phenyl}-methanol]
11 | 970 nM | Cc1ccc(Cl)cc1-c1nc(N)nc(Nc2ccc(COC(=O)[C@@H](N)CCCNC(=N)N)cc2)n1 [Example 75, (S)-2-Amino-5-guanidino-pentanoic acid 4-[4-amino-6-(5-chloro-2-methyl-phenyl)-[1,3,5]triazin-2-ylamino]-benzyl ester]
12 | 180 nM | Cc1ccc(Cl)cc1-c1nc(N)nc(Nc2ccc(CCl)cc2)n1 [Example 88, N-(4-Chloromethyl-phenyl)-6-(5-chloro-2-methyl-phenyl)-[1,3,5]triazine-2,4-diamine]
13 | 1300 nM | Cc1ccc(Cl)cc1-c1nc(N)nc(Nc2ccc(CC(=O)O)cc2)n1 [Example 60, {4-[4-Amino-6-(5-chloro-2-methyl-phenyl)-[1,3,5]triazin-2-ylamino]-phenyl}-acetic acid]
14 | 680 nM | CNc1nc(Nc2ccc(CO)cc2)nc(-c2cc(Cl)ccc2C)n1 [Example 74, {4-[4-(5-Chloro-2-methyl-phenyl)-6-methylamino-[1,3,5]-triazin-2-ylamino]-phenyl}-methanol]
15 | 4800 nM | Nc1nc(Nc2cccc(Cl)c2)nc(-c2cc(Cl)ccc2Cl)n1 [Example 90, N-(3-chlorophenyl)-6-(2,5-dichlorophenyl)-[1,3,5]triazine-2,4-diamine]
16 | 300 nM | Nc1nc(Nc2ccc3c(c2)OCO3)nc(-c2cc(Cl)ccc2Cl)n1 [Example 82, N-Benzo[1.3]dioxol-5-yl-6-(2,5-dichloro-phenyl)-[1,3,5]triazine-2,4-diamine]
17 | 620 nM | CC(C)Oc1ccc(Cl)cc1-c1nc(N)nc(Nc2ccc(Cl)cc2)n1 [Example 52, 6-(5-Chloro-2-isopropoxy-phenyl)-N-(4-chloro-phenyl)-[1,3,5]triazine-2,4-diamine]
18 | 830 nM | Cc1ccc(Cl)cc1-c1nc(N)nc(Nc2ccc(COC(=O)CCC(=O)O)cc2)n1 [Example 70]
19 | 600 nM | COCCOc1ccc(Cl)cc1-c1nc(N)nc(Nc2ccc(Cl)cc2)n1 [Example 65, 6-[5-Chloro-2-(2-methoxy-ethoxy)-phenyl]-N-(4-chloro-phenyl) [1,3,5]triazine-2,4-diamine]
